According to paper PMC5590106 (Biochemical and biophysical research communications, 2017):

Key:
Assay type in all cases: biochemical
[1] = molecular target: T1, C. elegans CED-3 (crude lysate, CED-3L) (Caenorhabditis elegans, UniProt P42573); assay: CED-3 fluorogenic assay
T1 sequence (P42573 221-374 limits assumed): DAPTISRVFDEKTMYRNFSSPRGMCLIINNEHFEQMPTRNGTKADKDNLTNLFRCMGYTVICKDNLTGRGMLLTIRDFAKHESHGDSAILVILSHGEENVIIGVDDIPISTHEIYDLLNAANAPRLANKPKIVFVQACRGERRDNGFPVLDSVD
T1 sequence (P42573 389-503 limits assumed): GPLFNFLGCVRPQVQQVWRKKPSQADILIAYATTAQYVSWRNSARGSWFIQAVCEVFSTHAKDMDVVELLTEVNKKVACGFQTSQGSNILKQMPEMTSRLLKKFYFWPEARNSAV

[2] = molecular target: T2, purified C. elegans CED-3 (Caenorhabditis elegans, UniProt P42573); assay: CED-3 fluorogenic assay; details: for Purified CED-3 Hill Slope Value: determined by XLfit in ActivityBase
T2 sequence (P42573 221-374 limits assumed): T1 sequence (P42573 221-374 limits assumed)
T2 sequence (P42573 389-503 limits assumed): T1 sequence (P42573 389-503 limits assumed)

Human Caspase 3 (HCASP3) = molecular target: T3, Human Caspase 3 (HCASP3) (Homo sapiens, UniProt P42574); assay: Human caspase-3 fluorogenic assay
T3 sequence (P42574 29-175 limits assumed): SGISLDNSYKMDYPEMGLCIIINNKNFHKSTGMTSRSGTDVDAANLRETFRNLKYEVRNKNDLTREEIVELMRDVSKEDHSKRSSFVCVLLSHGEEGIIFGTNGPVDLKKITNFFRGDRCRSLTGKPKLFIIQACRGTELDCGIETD
T3 sequence (P42574 176-277 limits assumed): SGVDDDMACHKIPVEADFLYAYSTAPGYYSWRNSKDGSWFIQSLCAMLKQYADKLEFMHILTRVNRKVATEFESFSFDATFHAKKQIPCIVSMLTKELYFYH

CC(=O)c1ccc(-c2ccc(/C=C3/SC(=S)NC3=O)o2)cc1 [BAS 00253468]
IC50 [1]: 21 µM
IC50 [2]: 9 µM
Purified CED-3 Hill Slope Value [2]: 1.79

Nc1ccc(N2Cc3ccccc3C2)cc1 [BAS 01988614]
IC50 [1]: 43.1 µM
IC50 [2]: 13.6 µM
Purified CED-3 Hill Slope Value [2]: 0.62

O=C(/C=C/c1ccccc1)NNC1=NS(=O)(=O)c2ccccc21 [BAS01847186]
potency on HCASP3 compared to CED-3 (Human Caspase 3 (HCASP3)): as potent or more so on HCASP3

O=C1NC(=S)N(c2ccc(F)cc2)C(=O)/C1=C/c1ccco1 [BAS 01202237]
Purified CED-3 Hill Slope Value [2]: 1.5

O=C(/C=C/c1ccco1)c1ccc(NC(=O)c2cccs2)cc1 [BAS 00835000]
IC50 [1]: 30 µM
IC50 [2]: 4.9 µM
Purified CED-3 Hill Slope Value [2]: 1.38

O=c1cc2oc3cc(O)c(O)cc3c(-c3ccccn3)c-2cc1O [BAS 05223612]
IC50 [1]: 24.5 µM
IC50 [2]: 3.9 µM
inhibition of CED-3 (in words) [2]: inhibited
Purified CED-3 Hill Slope Value [2]: 1.7
inhibition of HCASP3 (in words) (Human Caspase 3 (HCASP3); dose-response, at the concentrations tested): inhibited

COc1ccc(N2C(=O)/C(=C/c3ccco3)C(=O)NC2=S)cc1 [BAS 00519146]
Purified CED-3 Hill Slope Value [2]: 1.6
IC50 (Human Caspase 3 (HCASP3); read-out: IC50 HCASP-3, purified HCASP3, Fig. 3C): 10.8 µM

CCCOC(=O)/C(=C\C=C\c1ccco1)NC(=O)c1ccccc1 [BAS 00187854]
IC50 [1]: 34.7 µM
IC50 [2]: 14.6 µM
Purified CED-3 Hill Slope Value [2]: 1.27

CC(=O)N[C@@H](CC(=O)O)C(=O)N[C@@H](CCC(=O)O)C(=O)N[C@H](C(=O)N[C@H](C=O)CC(=O)O)C(C)C [Ac-DEVD-CHO, reference compound]
IC50 [1]: 0.0019 µM
calculated Hill slope on CED-3L ([1]; crude lysate, Fig. 1A): −0.994
IC50 [2]: 0.0027 µM
